Test results from patent publication US10351915B2 (Berg LLC, priority 2009, dated 2019).

What was measured:
[1] = system: various cell types; assay: Minimal CoQ10 concentration and treatment time for induction of early apoptosis (Bcl-2, caspase, annexin V); assay type: cell-based
Description: CoQ10 treatment of cells was carried out as described in detail below in the Materials and Methods. Induction of apoptosis was assessed in the treated cells by monitoring indicators of early apoptosis (e.g., Bcl-2 expression, caspase activation and by using annexin V assays) as described below. From these studies, the minimal CoQ10 dosage, e.g., concentration of CoQ10 and time of treatment, required to induce apoptosis in the panel of cell lines was determined.
Cells were cultured in T-75 flasks with relevant medium supplemented with 10% Fetal Bovine Serum (FBS), 1% PSA (penicillin, streptomycin, amphotericin B) (Invitrogen and Cellgro) in a 37° C. incubator with 5% CO2 levels until 70-80% confluence was reached. To harvest cells for treatment, flasks were primed with 1 mL Trypsin, aspirated, trypsinized with an additional 3 mL, and incubated at 37° C. for […]. Cells were then neutralized with an equal volμme of media and the subsequent solution was centrifuged at […] for 8 minutes. The supernatant was aspirated and the cells were resuspended with 8.5 ml of media. A mixture of 500 ul of the resuspension and 9.5 ml of […] was read twice by a coulter counter and the appropriate number of cells to be seeded into each dish was determined. Control and concentration ranging from 0-200 μM groups were examined in triplicate. From a 500 μM CoQ-10 stock solution, serial dilutions were performed to achieve desired experimental concentration in appropriate dishes. Dishes were incubated in a 37° C. incubator with 5% CO2 levels for 0-72 hours depending on cell type and experimental protocol.
The volume of sample to load per well was determined using the raw mean concentration of protein obtained from the BCA protein assay. Approximately 30-60 μg of protein were loaded for each treatment time point. Proteins were run in triplicate on 12% Tris-HCl ready gels (Bio-Rad) or hand cast gels in 1× running buffer at 85 and 100 volts. Proteins were then transferred onto nitrocellulose paper for an hour at 100 volts, and blocked for another hour in a 5% milk solution. Membranes were placed in primary antibody (1 uL Ab:1000 uL TBST) (Cell Signaling) overnight at […] The following day, membranes were washed three times for ten minutes each with Tris-Buffered Saline Tween-20 (TBST), and secondary antibody (anti-rabbit; 1 uL Ab: 1000 uL TBST) was applied for an hour at […] Membranes were washed again three times for ten minutes with TBST and chemoluminescence using Pico or Femto substrate was completed (Pierce). Membranes were then developed at time intervals that produced the best visual results. After developing, membranes were kept in TBST at […] until Actin levels could be measured.
Cells were washed twice in PBS10X and resuspended in Binding Buffer (0.1 M HEPES, pH 7.4; 1.4 M NaCl; 25 mM CaCl2). Samples of 100 μl were added to a culture tube with 5 μl of annexin-PE dye or […]. The cells were mixed and incubated without light at room temperature for 15 minutes. After which, 400 μl of 1× Binding Buffer was added to each sample and they were subjected to analysis by flow cytometry.

[2] = system: SDH Subunit B; assay: Western blot, Succinate Dehydrogenase B in mitochondrial preparations; assay type: cell-based; details: mitochondrial preparations of cancer cells
Description: The above blots were stripped by incubating for 30 minutes with methanol, followed by two 10 minute washes with TBS-T, then 30 minutes of incubation with Stripping buffer at 50 deg C., and followed by two washes with 100 ml or more of TBS-T for 30′ each. The blots were scanned in laser scanner to check for complete stripping. The blots were activated with methanol for 5 seconds, washed with water for 5 minutes, and TBST for 15 minutes. The blots were blocked for 1 hour with 5% blocking reagent in TBS-T at room temperature and then washed 3 times with TBS-T (1×-15′; 2×5′ each) and probed with the primary antibody for PKM2, SDHB or SDHC in 5% BSA in TBS-T by incubation overnight at 4 deg C. with gentle shaking. The primary antibody for SDHC (ABNOVA H00006391-M02; antimouse) was at 1:500 dilution. The primary antibody for SDHB was from Abcam ab4714-200; antimouse; at 1:1000 dilution. The primary antibody for Pyruvate Kinase M2 (PKM2) was from Novus Biologicals H00005315-D0IP; antirabbit; at 1:500 dilution. After incubation with primary antibodies, the membranes were washed 3 times with TBS-T (1×-15′; 2×5′ each) and probed with the secondary antibody (SDHB & C antimouse; and PKM2 antirabbit; 1:10,000 dilution) for 1 h on the orbital tilting shaker at room temperature. […]

[3] = system: HASMC cells; assay: Extracellular acidification rate (ECAR), SeaHorse XF analyzer; assay type: cell-based, human; details: hyperglycemic, hypoxic conditions
Excerpt: (SeaHorse Biosciences Inc, North Billerica, Mass.).
In this experiment, the OCR and extracellular acidification rate (ECAR) in normal cells lines were obtained in the presence and absence of CoQ10 to determine baseline values. It was observed that in its native nutrient environment, the basal OCR rates in normal cells lines are different, and are usually a function of the physiological roles of the cells in the body.
In Table 128 the measured baseline ECAR values (mpH/min) in HASMC were higher compared to that of HDFa. Induction of hypoxic conditions caused an increase in ECAR most likely associated with intracellular hypoxia induced acidosis secondary to increased glycolysis.

With COC1=C(OC)C(=O)C(C/C=C(\C)CC/C=C(\C)CC/C=C(\C)CC/C=C(\C)CC/C=C(\C)CC/C=C(\C)CC/C=C(\C)CC/C=C(\C)CC/C=C(\C)CCC=C(C)C)=C(C)C1=O [Q10, Coenzyme Q10] the “Indication of Early apoptosis (Bcl-2, annexin V, or caspase activation)” value (“Indication of Early apoptosis” below) ([1]; BONE: Ewing's sarcoma (NCI)) was “Extremely”, the “Minimal treatment Time for induction of early apoptosis” value (“Minimal treatment Time for induction” for short) ([1]; BONE: Ewing's sarcoma (NCI)) was 1 h and the “Indication of Early apoptosis” value ([1]; BONE: Osteosarcoma (143b)) was “Very Strong”. The “Minimal treatment Time for induction” value ([1]; BONE: Osteosarcoma (143b)) was 48 h, the “Indication of Early apoptosis” value ([1]; BREAST: BT-20) was “Strong” and the “Minimal treatment Time for induction” value ([1]; BREAST: BT-20) was 48 h. For the same compound, the “Indication of Early apoptosis” value ([1]; BREAST: MCF-7) was “Strong”, the “Minimal treatment Time for induction” value ([1]; BREAST: MCF-7) was 48 h and the “Indication of Early apoptosis” value ([1]; BREAST: MDA MB 468) was “Strong”. For the same compound, the “Minimal treatment Time for induction” value ([1]; BREAST: MDA MB 468) was 48 h, the “Indication of Early apoptosis” value ([1]; BREAST: SkBr-3) was “Very Strong” and the “Minimal treatment Time for induction” value ([1]; BREAST: SkBr-3) was 24 h. The “Indication of Early apoptosis” value ([1]; BREAST: ZR-75) was “Slight”, the “Minimal treatment Time for induction” value ([1]; BREAST: ZR-75) was 72 h and the “Indication of Early apoptosis” value ([1]; Heart: Aortic smooth muscle (HASMC)) was “None”. The “Indication of Early apoptosis” value ([1]; LIVER: Hep3B) was “Very Strong”, the “Minimal treatment Time for induction” value ([1]; LIVER: Hep3B) was 24 h and the “Indication of Early apoptosis” value ([1]; LIVER: HepG2) was “Very Strong”. The “Minimal treatment Time for induction” value ([1]; LIVER: HepG2) was 24 h, the “Indication of Early apoptosis” value ([1]; Mammary fiboblasts: 184A1 and 184B5) was “None” and the “Indication of Early apoptosis” value ([1]; Melanoma (Skmel 2)) was “Very Strong”. For the same compound, the “Minimal treatment Time for induction” value ([1]; Melanoma (Skmel 2)) was 24 h, the “Indication of Early apoptosis” value ([1]; Melanoma (Skmel 28)) was “Strong” and the “Minimal treatment Time for induction” value ([1]; Melanoma (Skmel 28)) was 24 h. The “Indication of Early apoptosis” value ([1]; PANCREAS: PaCa2) was “Very Strong”, the “Minimal treatment Time for induction” value ([1]; PANCREAS: PaCa2) was 24 h and the “Indication of Early apoptosis” value ([1]; PROSTATE: PC3) was “Very Strong”. The “Minimal treatment Time for induction” value ([1]; PROSTATE: PC3) was 24 h, the “Indication of Early apoptosis” value ([1]; SCC, Squamous cell carcinoma) was “Very Strong” and the “Minimal treatment Time for induction” value ([1]; SCC, Squamous cell carcinoma) was 24 h. For the same compound, the “Indication of Early apoptosis” value ([1]; SKIN: Fibroblasts (nFib)) was “None”, the “Indication of Early apoptosis” value ([1]; SKIN: Keratinocytes (Heka, Hekn)) was “None” and the “Indication of Early apoptosis” value ([1]; SKIN: Melanocytes (Hema, LP)) was “None”. The “effect on normal cells” value ([1]; normal cells, including keratinocytes and dermal fibroblasts) was “increased proliferation and migration”, the “efficacy of Coenzyme Q10 treatment (induction of apoptosis)” value ([1]; oncogenic cell lines) was “greater in cell types that exhibited increased oncogenicity and/or greater metastatic potential” and the SDH protein levels [2] was “increase SDH protein levels”. For the same compound, the ECAR rates [3] was “downward trend of ECAR rates”.
